Experimental data: ChEMBL document CHEMBL6078637, “Cyclic Diguanylate G-Quadruplex Inducer-Quorum Sensing Inhibitor Hybrids as Bifunctional Anti-biofilm and Anti-virulence Agents Against Pseudomonas aeruginosa” (J Med Chem, 2024)
Activity calls are given as the source filed them. The calls are words filed in the database; no cut-off is given here.

Columns and labels:
Pseudomonas aeruginosa [1] = assay: Antibacterial activity against Pseudomonas aeruginosa PAO1 incubated for 24 hrs by absorbance based assay; format: functional
[2] = Inhibition of quorum sensing system in Pseudomonas aeruginosa PAO1 harboring mini-ctx-lasB-lacZ at 10 uM measured after 16 hrs by ONPG test relative to control
Pseudomonas aeruginosa [3] = assay: Antibiofilm activity against Pseudomonas aeruginosa PAO1 harboring wspF mutant assessed as inhibition rate at 1.25 uM incubated for 24 hrs by absorbance based assay relative to control; format: functional
[4] = Toxicity in Caenorhabditis elegans infected with Pseudomonas aeruginosa PAO1 assessed as nematode survival at 10 uM incubated for 48 hrs
Pseudomonas aeruginosa [5] = assay: Inhibition of beta-galactosidase in Pseudomonas aeruginosa PAO1 harboring mini-ctx-lasB-lacZ incubated for 6 hrs by ONPG test; conditions: dose <= 10.0 µM
Vero = assay: Cytotoxicity against African green monkey Vero cells at 12.5 uM incubated for 24 hrs by MTT assay; format: toxicity, cell-based; conditions: chlorocebus sabaeus
Pseudomonas aeruginosa [6] = assay: Inhibition of swimming motility of Pseudomonas aeruginosa PAO1 at 10 uM incubated overnight relative to control; format: functional
Pseudomonas aeruginosa [7] = assay: Inhibition of beta-galactosidase in Pseudomonas aeruginosa PAO1 harboring mini-ctx-lasB-lacZ at 10 uM incubated for 6 hrs by ONPG test relative to control
Pseudomonas aeruginosa [8] = assay: Inhibition of beta-galactosidase in Pseudomonas aeruginosa PAO1 harboring mini-ctx-rhlA-lacZ at 10 uM incubated for 6 hrs by ONPG test relative to control
Pseudomonas aeruginosa [9] = assay: Antibiofilm activity against Pseudomonas aeruginosa PAO1 harboring wspF mutant incubated for 24 hrs by absorbance based assay; format: functional, organism-based
[10] = Toxicity in Caenorhabditis elegans infected with hyper-biofilm phenotype Pseudomonas aeruginosa PAO1 harboring wspF mutant assessed as nematode death at 10 uM incubated for 48 hrs in presence of tetracycline
Pseudomonas aeruginosa [11] = assay: Antivirulence activity against Pseudomonas aeruginosa PAO1 assessed as reduction in rhamnolipid level incubated for 24 hrs by orcinol based analysis; format: functional, organism-based; conditions: dose <= 10.0 µM
Pseudomonas aeruginosa [12] = assay: Synergistic inhibition of bacterial virulence of Pseudomonas aeruginosa PAO1 infected in Caenorhabditis elegans upto 10 uM incubated for 36 hrs in presence of tetracycline; format: functional, organism-based
Pseudomonas aeruginosa [13] = assay: Inhibition of beta-galactosidase in Pseudomonas aeruginosa PAO1 harboring mini-ctx-pqsA-lacZ at 10 uM incubated for 6 hrs by ONPG test relative to control
DNA [14] = assay: Binding affinity to pBR322 DNA (unknown origin) assessed as DNA migration at 50 uM preincubated for 10 mins followed by Topo I addition measured after 1 hr by TO dye based PAGE analysis; format: nucleic-acid assay; conditions: time 70.0 min
Pseudomonas aeruginosa [15] = assay: Inhibition of swarming motility of Pseudomonas aeruginosa PAO1 incubated overnight; format: functional, organism-based; conditions: dose <= 10.0 µM
[16] = Toxicity in Caenorhabditis elegans infected with Pseudomonas aeruginosa PAO1 assessed as nematode survival at 10 uM incubated for 48 hrs in presence of tetracycline
[17] = Toxicity in Caenorhabditis elegans assessed as nematode survival upto 100 uM incubated for 96 hrs
Pseudomonas aeruginosa [18] = assay: Synergistic inhibition of bacterial virulence of Pseudomonas aeruginosa PAO1 infected in Caenorhabditis elegans upto 10 uM incubated for 36 hrs in presence of TOB; format: functional, organism-based
Pseudomonas aeruginosa [19] = assay: Antivirulence activity against Pseudomonas aeruginosa PAO1 assessed as reduction in pyocyanin level incubated for 24 hrs by absorbance based assay; format: functional, organism-based; conditions: dose <= 10.0 µM
Pseudomonas aeruginosa [20] = assay: Inhibition of swimming motility of Pseudomonas aeruginosa PAO1 incubated overnight; format: functional, organism-based; conditions: dose <= 10.0 µM
Pseudomonas aeruginosa [21] = assay: Antibiofilm activity against Pseudomonas aeruginosa PAO1 harboring wspF mutant assessed as inhibition rate at 10 uM incubated for 24 hrs by absorbance based assay relative to control; format: functional
Pseudomonas aeruginosa [22] = assay: Inhibition of beta-galactosidase in Pseudomonas aeruginosa PAO1 harboring mini-ctx-pqsA-lacZ incubated for 6 hrs by ONPG test; conditions: dose <= 10.0 µM
[23] = Toxicity in Caenorhabditis elegans infected with Pseudomonas aeruginosa PAO1 assessed as reduction in nematode mortality rate at 10 uM incubated for 48 hrs in presence of TOB; design: scale not given: the % may be the effect or the level left
DNA [24] = assay: Binding affinity to pBR322 DNA (unknown origin) assessed as DNA embedding toxicity at 50 uM preincubated for 10 mins followed by Topo I addition measured after 1 hr by TO dye based PAGE analysis; format: nucleic-acid assay; conditions: time 70.0 min
Pseudomonas aeruginosa [25] = assay: Synergistic antibacterial activity against Pseudomonas aeruginosa PAO1 assessed as bacterial growth inhibition at 20 uM incubated for 24 hrs in presence of tetracycline by CFU counting method; format: functional, organism-based
Pseudomonas aeruginosa [26] = assay: Antivirulence activity against Pseudomonas aeruginosa PAO1 assessed as reduction in rhamnolipid level at 10 uM incubated for 24 hrs by orcinol based analysis; format: functional, organism-based
[27] = Toxicity in Caenorhabditis elegans infected with hyper-biofilm phenotype Pseudomonas aeruginosa PAO1 harboring wspF mutant assessed as nematode death at 10 uM incubated for 48 hrs in presence of TOB
Pseudomonas aeruginosa [28] = assay: Inhibition of twitching motility of Pseudomonas aeruginosa PAO1 at 10 uM incubated overnight by crystal voilet staining based analysis; format: functional, organism-based
Pseudomonas aeruginosa [29] = assay: Synergistic inhibition of bacterial virulence of hyper-biofilm phenotype Pseudomonas aeruginosa PAO1 harboring wspF mutant upto 10 uM incubated for 36 hrs in presence of TOB; format: functional, organism-based
[30] = Hemolytic activity in rabbit erythrocytes assessed as damage in cell membrane integrity at 100 uM incubated for 4 hrs by absorbance based assay; format: toxicity, Oryctolagus cuniculus; conditions: erythrocyte
Pseudomonas aeruginosa [31] = assay: Inhibition of twitching motility of Pseudomonas aeruginosa PAO1 incubated overnight by crystal voilet staining based analysis; format: functional, organism-based; conditions: dose <= 10.0 µM
Pseudomonas aeruginosa [32] = assay: Synergistic inhibition of bacterial virulence of hyper-biofilm phenotype Pseudomonas aeruginosa PAO1 harboring wspF mutant upto 10 uM incubated for 36 hrs in presence of tetracycline; format: functional, organism-based
Pseudomonas aeruginosa [33] = assay: Antivirulence activity against Pseudomonas aeruginosa PAO1 assessed as reduction in hemolysin level at 10 uM preincubated for 24 hrs followed by addition of erythrocytes measured after 30 mins by absorbance based analysis relative to control; format: functional; design: scale not given: the % may be the effect or the level left
Pseudomonas aeruginosa [34] = assay: Antivirulence activity against Pseudomonas aeruginosa PAO1 assessed as reduction in elastase level incubated for 24 hrs by elastin-Congo red staining based analysis; format: functional, organism-based; conditions: dose <= 10.0 µM
Pseudomonas aeruginosa [35] = assay: Inhibition of beta-galactosidase in Pseudomonas aeruginosa PAO1 harboring mini-ctx-lacZ at 10 uM incubated for 6 hrs by ONPG test relative to control
Pseudomonas aeruginosa [36] = assay: Inhibition of swarming motility of Pseudomonas aeruginosa PAO1 at 10 uM incubated overnight; format: functional, organism-based
Pseudomonas aeruginosa [37] = assay: Antivirulence activity against Pseudomonas aeruginosa PAO1 assessed as reduction in elastase level at 10 uM incubated for 24 hrs by elastin-Congo red staining based analysis relative to control; format: functional; design: scale not given: the % may be the effect or the level left

C[n+]1c(/C=C/c2cc(=O)c(O)co2)ccc2ccccc21
MIC (Pseudomonas aeruginosa [1]): > 128 µM
inhibition [2]: 0.45%

COc1ccc2c(/C=C/c3ccc4ccccc4[n+]3C)c[nH]c2c1
MIC (Pseudomonas aeruginosa [1]): > 128 µM
inhibition at 1.25 µM (Pseudomonas aeruginosa [3]): ~21%
inhibition [2]: 17.9%

C[n+]1c(/C=C/c2ccc3ccc(=O)oc3c2)ccc2ccccc21
MIC (Pseudomonas aeruginosa [1]): > 128 µM
inhibition [2]: 2.74%

C[n+]1c(/C=C/c2c[nH]c3ccc([N+](=O)[O-])cc23)ccc2ccccc21
MIC (Pseudomonas aeruginosa [1]): > 128 µM
inhibition [2]: 4.62%

C[n+]1c(/C=C/c2c[nH]c3ccc(F)cc23)ccc2ccccc21.[I-]
Activity [4]: Toxic
inhibition (Pseudomonas aeruginosa [5]): Dose-dependent-effect
Activity (Vero): Non-toxic
inhibition at 10 µM (Pseudomonas aeruginosa [6]): 22.4%
inhibition (Pseudomonas aeruginosa [7]): 30%
inhibition (Pseudomonas aeruginosa [8]): 10%
inhibition (Pseudomonas aeruginosa [9]): Dose-dependent-effect
IC50 (Pseudomonas aeruginosa [9]; PAO1, 24 h): 23.4 µM
Activity [10]: Non-toxic
Activity (Pseudomonas aeruginosa [11]): Dose-dependent-effect
Activity (Pseudomonas aeruginosa [12]): Active
MIC (Pseudomonas aeruginosa [1]): > 128 µM
inhibition (Pseudomonas aeruginosa [13]): 30%
Activity (DNA [14]): Not toxic
inhibition (Pseudomonas aeruginosa [15]): Dose-dependent-effect
inhibition at 1.25 µM (Pseudomonas aeruginosa [3]): ~21%
Survival [16]: 86.3%
Activity [17]: Non-toxic
Activity (Pseudomonas aeruginosa [18]): Active
Activity (Pseudomonas aeruginosa [19]): Dose-dependent-effect
inhibition (Pseudomonas aeruginosa [20]): Dose-dependent-effect
inhibition [2]: 40.3%
inhibition at 10 µM (Pseudomonas aeruginosa [21]): ~40%
inhibition (Pseudomonas aeruginosa [22]): Dose-dependent-effect
Activity [23]: ~ 50%
Activity (DNA [24]): Not toxic
Activity (Pseudomonas aeruginosa [25]): Active
Activity (Pseudomonas aeruginosa [26]): Active; Exhibited Relatively Modest Activity
Activity [27]: Non-toxic
inhibition (Pseudomonas aeruginosa [28]): Active; Exhibited Only A Modest Impact
Activity (Pseudomonas aeruginosa [29]): Active
Activity [30]: Non-toxic
inhibition (Pseudomonas aeruginosa [31]): Dose-dependent-effect
Activity (Pseudomonas aeruginosa [32]): Active
Activity (Pseudomonas aeruginosa [33]): 51.3%
Activity (Pseudomonas aeruginosa [34]): Dose-dependent-effect
inhibition (Pseudomonas aeruginosa [35]): 8.03%
inhibition (Pseudomonas aeruginosa [36]): Active; Inhibitory Effect Was Comparable To Qs Deficient Pao1 Double Mutant Lasi/Rhli
Activity (Pseudomonas aeruginosa [37]): 48.51%

C[n+]1c(/C=C/c2cc3ccccc3[nH]2)sc2ccccc21
MIC (Pseudomonas aeruginosa [1]): > 128 µM
inhibition [2]: 2.23%

C[n+]1c(/C=C/c2coc3ccccc3c2=O)sc2ccccc21
MIC (Pseudomonas aeruginosa [1]): > 128 µM
inhibition [2]: 7.3%

C[n+]1c(/C=C/c2c[nH]c3cc(Br)ccc23)ccc2ccccc21
MIC (Pseudomonas aeruginosa [1]): > 128 µM
inhibition at 1.25 µM (Pseudomonas aeruginosa [3]): ~21%
inhibition [2]: 0.5%

COc1ccc2[nH]cc(/C=C/c3ccc4ccccc4[n+]3C)c2c1
MIC (Pseudomonas aeruginosa [1]): > 128 µM
inhibition at 1.25 µM (Pseudomonas aeruginosa [3]): ~21%
inhibition [2]: 16.6%

CC[C@H]1OC(=O)[C@H](C)[C@@H](O[C@H]2C[C@@](C)(OC)[C@@H](O)[C@H](C)O2)[C@H](C)[C@@H](O[C@@H]2O[C@H](C)C[C@H](N(C)C)[C@H]2O)[C@](C)(O)C[C@@H](C)CN(C)[C@H](C)[C@@H](O)[C@]1(C)O [AZITHROMYCIN]
inhibition at 10 µM (Pseudomonas aeruginosa [21]): 43.9%

C[n+]1c(/C=C/c2c[nH]c3cc(Cl)ccc23)ccc2ccccc21
MIC (Pseudomonas aeruginosa [1]): > 128 µM
inhibition [2]: 3.02%

C[n+]1c(/C=C/c2cc(=O)c(O)co2)sc2ccccc21
MIC (Pseudomonas aeruginosa [1]): > 128 µM
inhibition [2]: 4.1%

C[n+]1c(/C=C/c2cc3ccccc3[nH]2)ccc2ccccc21
MIC (Pseudomonas aeruginosa [1]): > 128 µM
inhibition [2]: 1.42%

C[n+]1c(/C=C/c2c[nH]c3ccc(Br)cc23)ccc2ccccc21
MIC (Pseudomonas aeruginosa [1]): > 128 µM
inhibition [2]: 2.52%

C[n+]1c(/C=C/c2ccc3ccc(=O)oc3c2)sc2ccccc21
MIC (Pseudomonas aeruginosa [1]): > 128 µM
inhibition [2]: 2.42%

C[n+]1c(/C=C/c2c[nH]c3cc(F)ccc23)ccc2ccccc21
MIC (Pseudomonas aeruginosa [1]): > 128 µM
inhibition at 1.25 µM (Pseudomonas aeruginosa [3]): ~21%
inhibition [2]: 9.14%

Cc1cc(=O)c(O)c(/C=C/c2sc3ccccc3[n+]2C)o1
MIC (Pseudomonas aeruginosa [1]): > 128 µM
inhibition [2]: 7.78%

C[n+]1c(/C=C/c2coc3ccccc3c2=O)ccc2ccccc21
MIC (Pseudomonas aeruginosa [1]): > 128 µM
inhibition [2]: 1.21%

C[n+]1c(/C=C/c2cccc3c2CCO3)ccc2ccccc21
MIC (Pseudomonas aeruginosa [1]): > 128 µM
inhibition [2]: 9.4%

Cc1ccc2c(/C=C/c3ccc4ccccc4[n+]3C)c[nH]c2c1
MIC (Pseudomonas aeruginosa [1]): > 128 µM
inhibition at 1.25 µM (Pseudomonas aeruginosa [3]): ~21%
inhibition [2]: 16.2%

C[n+]1c(/C=C/c2ccc3c(c2)CCO3)sc2ccccc21
MIC (Pseudomonas aeruginosa [1]): > 128 µM
inhibition [2]: 3.6%

C[n+]1c(/C=C/c2cscn2)ccc2ccccc21
MIC (Pseudomonas aeruginosa [1]): > 128 µM
inhibition [2]: 4.55%

C[n+]1c(/C=C/c2c[nH]c3ccc(Cl)cc23)ccc2ccccc21
MIC (Pseudomonas aeruginosa [1]): > 128 µM
inhibition [2]: 4.53%

C[n+]1c(/C=C/c2ccc3nc[nH]c3c2)ccc2ccccc21
MIC (Pseudomonas aeruginosa [1]): > 128 µM
inhibition [2]: 1.69%

C[n+]1c(/C=C/c2c[nH]c3ccccc23)sc2ccccc21
MIC (Pseudomonas aeruginosa [1]): > 128 µM
inhibition at 1.25 µM (Pseudomonas aeruginosa [3]): ~21%
inhibition [2]: 20.9%

Cc1ccc2[nH]cc(/C=C/c3ccc4ccccc4[n+]3C)c2c1
MIC (Pseudomonas aeruginosa [1]): > 128 µM
inhibition at 1.25 µM (Pseudomonas aeruginosa [3]): ~21%
inhibition [2]: 17%

C[n+]1c(/C=C/c2ccc3nc[nH]c3c2)sc2ccccc21
MIC (Pseudomonas aeruginosa [1]): > 128 µM
inhibition [2]: 3.2%

C[n+]1c(/C=C/c2cccc3ocnc23)ccc2ccccc21
MIC (Pseudomonas aeruginosa [1]): > 128 µM
inhibition [2]: 2.91%

C[n+]1c(/C=C/c2cscn2)sc2ccccc21
MIC (Pseudomonas aeruginosa [1]): > 128 µM
inhibition [2]: 3.65%

C[n+]1c(/C=C/c2ccc3ocnc3c2)sc2ccccc21
MIC (Pseudomonas aeruginosa [1]): > 128 µM
inhibition [2]: 1.14%

C[n+]1c(/C=C/c2c[nH]c3ccc(O)cc23)ccc2ccccc21
MIC (Pseudomonas aeruginosa [1]): > 128 µM
inhibition [2]: 7.32%

Cc1cc(=O)c(O)c(/C=C/c2ccc3ccccc3[n+]2C)o1
MIC (Pseudomonas aeruginosa [1]): > 128 µM
inhibition [2]: 4.86%
